# Assay results published in publication PMC4491869, “Antimicrobial activity of synthetic cationic peptides and lipopeptides derived from human lactoferricin against Pseudomonas aeruginosa planktonic cultures and biofilms” (BMC Microbiology, 2015).
# Read-outs that look alike come from different tables or passages of the source. Where a SMILES comes first, the peptide text is derived from it. The star is where a group is joined. Butanoyl(2,2-Me2) = CCC(C)(C)C(=O)*; Octanoyl(6-Me) = CCC(C)CCCCC(=O)*; Octanoyl = CCCCCCCC(=O)*
# Legend:
# [1] = test system: Pseudomonas aeruginosa PAO1 planktonic cells; type: cell-based
# Procedure: Minimal inhibitory concentrations (MIC) of the peptides were determined in Mueller Hinton (MH) medium (Difco Laboratories, Detroit, MI, USA) by the broth microdilution assay following recommendations of the Clinical and Laboratory Standards Institute (CLSI, formerly NCCLS) with some modifications. Minimum bactericidal concentration (MBC) was defined as the concentration that caused a 3-log viability decrease in the initial inoculum and was calculated by colony counts on TSA plates incubated for 24 h at 37 °C.
# P. aeruginosa PAO1 = assay: Time-kill curves (T3log); type: cell-based, Pseudomonas aeruginosa; settings: MH, 37 °C with shaking, sampling 15 min to 6 h
# Procedure: Time-kill studies were determined with glass tubes containing 10 ml of MH and different concentrations of the peptides (1, 2 and 4 times their MIC). Overnight cultures of P. aeruginosa PAO1 in TSB were adjusted at 5 × 10^7 CFU/ml turbidimetrically. This […] suspension was diluted in the MH tubes (1:50) for the time-kill assay. Tubes were incubated at 37 °C with shaking and samples were taken at the following time points after the beginning of incubation: 15 min, 30 min, 45 min, 1 h, 2 h, 4 h and 6 h. Each sample was serially diluted and plated. The lower limit of detection was 30 CFU/ml (1.5 × log10 CFU/ml).
# To quantify the killing efficiency of the treatments, the parameter T3log (defined as the time required for the treatment to decrease 3 logs the initial inoculum) was used.
# [2] = test system: P. aeruginosa PAO1 biofilms; type: cell-based, Pseudomonas aeruginosa
# Procedure: (§1) In the microplate based assay, biofilms were grown with no fluid shear and the anti-biofilm activity of peptides was assessed as previously described with some modifications. Briefly, overnight cultures of P. aeruginosa PAO1 in TSB were adjusted at 5 × 10^7 CFU/ml turbidimetrically. This suspension was diluted in TSB (1:100) and 100 μl aliquots were added to the wells of a 96-well plate. After 24 h incubation at 37 °C, planktonic bacteria were removed by gently inverting the plate and then the biofilm-containing wells were washed with saline (0.85 % NaCl). The antimicrobial compound was serially diluted in Mueller Hinton (MH) at final concentrations higher than its planktonic MIC and 200 μl of each dilution was added to the wells. After 24 h incubation at 37 °C, biofilms were stained with either MTT (Sigma, St. Louis, MO, USA) or crystal violet (CV). As control, duplicate biofilms were incubated with MH containing no antimicrobial.
# To quantify the disinfection (or bactericidal) activity of the antimicrobials on the biofilms, the MTT assay was used and performed as follows. After the treatment, the biofilms were rinsed with saline and 200 μl of a 0.5 mg/ml dilution of MTT in MH, was added to the wells. Incubation of biofilm with MTT was carried out during 4 h at 37 °C with no shaking. As a measure of cell viability, the conversion of MTT to a […] was determined by solubilizing the salt in 100 μl/well of DMSO and reading the absorbance of the resulting solution at 540 nm.
# (§2) Both the disinfection and removal activity of antimicrobials were expressed as “activity percentage”, a parameter that was calculated using the following formula: ActivityPercentage=C−B−T−B/C−B×100
# (§3) Where C is the absorbance value of the control well with non-treated biofilm, T corresponds to the absorbance value of the well with treated biofilm and B is the blank well (i.e. with no biofilm).
# [3] = test system: P. aeruginosa PAO1 biofilms; assay: Microplate biofilm assay (static flow regime), crystal violet removal activity; type: cell-based, Pseudomonas aeruginosa; settings: 10XMIC, 24 h at 37 °C, biofilms grown in microplates (static conditions)
# Procedure: as §1, with “After 24 h incubation at 37 °C, biofilms were stained with either MTT (Sigma, St. Louis, MO, USA) or crystal violet (CV). As control, duplicate biofilms were incubated with MH containing no antimicrobial.” left out
# The ability of the antimicrobials to remove the biofilm attached to the microplate well was determined by CV staining. […] The absorbance was measured at 595 nm.
# as §2, §3
# HeLa cells = assay: Cytotoxicity assay (MTT); type: cell-based; settings: HeLa cells, 24 h, MTT; maximum concentration assayed 10 times their MIC
# Procedure: Cytotoxicity was assayed on HeLa cells using the MTT [3-(4,5-dimethylthiazoyl-2-yl) 2,5 diphenyltetrazolium bromide protocol. Cells were grown in Dulbeccos’s modified Eagle’s medium (DMEM) and adjusted to a concentration of 10^5 cells/ml (MTT) in 96 wells polystyrene plates. Plates were incubated for 24 h at 37 °C in 5 % CO2, then supplemented with increasing amounts of peptides diluted in 2 mM Hepes pH 7.2, and incubation carried on for 24 h under the same conditions. After this time, filter-sterilized MTT was added in different plates. After 3 h, the content of the wells was gently solved and mixed with 100 μl of DMSO (MTT). Absorbance was measured at 540 nm. Compound cytotoxicity was expressed as LC50, the concentration of the compound that is lethal to 50 % of the cells.
"MIC (minimal inhibitory concentration) ([1]; PAO1, 24 h) [µg/mL]",SMILES,"MBC (minimal bactericidal concentration) ([1]; PAO1, 24 h) [µg/mL]",T3log at 1X MIC (time needed to decrease 3 logs the initial inoculum) (P. aeruginosa PAO1) [minutes],T3log at 2X MIC (time needed to decrease 3 logs the initial inoculum) (P. aeruginosa PAO1) [minutes],T3log at 4X MIC (time needed to decrease 3 logs the initial inoculum) (P. aeruginosa PAO1) [minutes],"Disinfection activity (biofilm-forming bacteria killed, MTT test) ([2]; 10XMIC, 24 h at 37 °C, biofilms grown in microplates (static conditions))","Removal activity (biofilm mass removed, CV test) [3]","Disinfection activity (biofilm-forming bacteria killed, MTT test) ([2]; PAO1, 24 h) [%]","MIC (minimal inhibitory concentration) ([1]; PAO1 planktonic cells, broth microdilution in Mueller Hinton medium, CLSI with some modifications) [µg/mL]","MBC (minimal bactericidal concentration) ([1]; PAO1 planktonic cells, concentration causing a 3-log viability decrease in the initial inoculum, colony counts on TSA, 24 h, 37 °C) [µg/mL]",LC50 relative to the maximum concentration assayed (HeLa cells) [times their MIC]
32,CCCCCCCC(=O)N[C@@H](Cc1ccccc1)C(=O)N[C@@H](Cc1c[nH]c2ccccc12)C(=O)N[C@@H](CCCNC(=N)N)C(=O)N[C@H](C(=O)N[C@@H](CCCNC(=N)N)C(=O)N[C@H](C(=O)N[C@@H](CCCNC(=N)N)C(=O)N[C@@H](CCCNC(=N)N)C(N)=O)[C@@H](C)CC)[C@@H](C)CC [O-LF11-215] (Octanoyl-FWRIRIRR-NH2),32,17,21,10,,,,,,
16,"CC[C@H](C)[C@H](NC(=O)[C@H](CCCNC(=N)N)NC(=O)[C@@H](NC(=O)[C@H](CCCNC(=N)N)NC(=O)[C@H](Cc1c[nH]c2ccccc12)NC(=O)[C@H](Cc1ccccc1)NC(=O)C(C)(C)CC)[C@@H](C)CC)C(=O)N[C@@H](CCCNC(=N)N)C(=O)N[C@@H](CCCNC(=N)N)C(N)=O [DI-MB-LF11-215] ({Butanoyl(2,2-Me2)}-FWRIRIRR-NH2)",16,17,11,10,medium-range disinfection activity,higher than 35%,,,,
64,N=C(N)NCCC[C@H](NC(=O)[C@H](CCCNC(=N)N)NC(=O)[C@H](Cc1c[nH]c2ccccc12)NC(=O)[C@H](Cc1ccccc1)NC(=O)[C@H](CCCNC(=N)N)NC(=O)[C@H](CCCNC(=N)N)NC(=O)[C@H](Cc1c[nH]c2ccccc12)NC(=O)[C@@H](N)Cc1ccccc1)C(N)=O [LF11-227] (H-FWRRFWRR-NH2),64,,,,,,~100,,,
64,CCC(C)CCCCC(=O)N1CCC[C@H]1C(=O)N[C@@H](Cc1ccccc1)C(=O)N[C@@H](Cc1c[nH]c2ccccc12)C(=O)N[C@@H](CCCNC(=N)N)C(=O)N[C@H](C(=O)N[C@@H](CCCNC(=N)N)C(=O)N[C@H](C(=O)N[C@@H](CCCNC(=N)N)C(=O)N[C@@H](CCCNC(=N)N)C(N)=O)[C@@H](C)CC)[C@@H](C)CC (stereo partly shown) [6-MO-LF11-322] ({Octanoyl(6-Me)}-PFWRIRIRR-NH2),64,41,39,19,,,,,,
,CC[C@H](C)[C@H](NC(=O)[C@H](CCCNC(=N)N)NC(=O)[C@@H](NC(=O)[C@H](CCCNC(=N)N)NC(=O)[C@H](Cc1c[nH]c2ccccc12)NC(=O)[C@@H](N)Cc1ccccc1)[C@@H](C)CC)C(=O)N[C@@H](CCCNC(=N)N)C(=O)N[C@@H](CCCNC(=N)N)C(N)=O [LF11-215] (H-FWRIRIRR-NH2),,,,,,,,64,128,> 10
8,CC[C@H](C)[C@H](NC(=O)[C@H](CCCNC(=N)N)NC(=O)[C@@H](NC(=O)[C@H](CCCNC(=N)N)NC(=O)[C@H](Cc1c[nH]c2ccccc12)NC(=O)[C@H](Cc1ccccc1)NC(=O)[C@H](Cc1ccccc1)NC(=O)[C@@H]1CCCN1)[C@@H](C)CC)C(=O)N[C@@H](CCCNC(=N)N)C(=O)N[C@@H](CCCNC(=N)N)C(N)=O [LF11-324] (H-PFFWRIRIRR-NH2),8,,,,,,,,,
64,CCC(C)CCCCC(=O)N[C@@H](Cc1ccccc1)C(=O)N[C@@H](Cc1c[nH]c2ccccc12)C(=O)N[C@@H](CCCNC(=N)N)C(=O)N[C@H](C(=O)N[C@@H](CCCNC(=N)N)C(=O)N[C@H](C(=O)N[C@@H](CCCNC(=N)N)C(=O)N[C@@H](CCCNC(=N)N)C(N)=O)[C@@H](C)CC)[C@@H](C)CC (stereo partly shown) [6-MO-LF11-215] ({Octanoyl(6-Me)}-FWRIRIRR-NH2),64,34,11,10,,,,,,
32,CC[C@H](C)[C@H](NC(=O)[C@H](CCCNC(=N)N)NC(=O)[C@@H](NC(=O)[C@H](CCCNC(=N)N)NC(=O)[C@H](Cc1c[nH]c2ccccc12)NC(=O)[C@H](Cc1ccccc1)NC(=O)[C@@H]1CCCN1)[C@@H](C)CC)C(=O)N[C@@H](CCCNC(=N)N)C(=O)N[C@@H](CCCNC(=N)N)C(N)=O [LF11-322] (H-PFWRIRIRR-NH2),64,,,,,,,,,
128,CCCCCCCC(=O)N[C@@H](Cc1ccccc1)C(=O)N[C@@H](Cc1c[nH]c2ccccc12)C(=O)N[C@@H](CCCNC(=N)N)C(=O)N[C@@H](CCCNC(=N)N)C(=O)N[C@@H](Cc1ccccc1)C(=O)N[C@@H](Cc1c[nH]c2ccccc12)C(=O)N[C@@H](CCCNC(=N)N)C(=O)N[C@@H](CCCNC(=N)N)C(N)=O [O-LF11-227] (Octanoyl-FWRRFWRR-NH2),128,10,10,10,,,,,,
